Assay results taken from the NIST ThermoML archive (doi:10.1021/je800046k).
Numbers after ± are expanded uncertainties.

Experiment: xn = mol fraction of the nth substance listed
Conditions: for surface tension liquid-gas: Pendant drop shape; for mass density: 101 kPa, Liquid

CC(=O)OCC(C)C [2-methylpropyl ethanoate] + Cc1ccc(C)c(C)c1
Conditions | mass density [kg/m3] | surface tension liquid-gas [mN/m]
298.15 K, x1 = 0.0494 | 871.36 ± 0.56 | 28.85 ± 0.33
298.15 K, x1 = 0.0992 | 871.02 ± 0.58 | 28.38 ± 0.32
298.15 K, x1 = 0.1493 | 870.68 ± 0.61 | 27.89 ± 0.32
298.15 K, x1 = 0.2002 | 870.35 ± 0.63 | 27.4 ± 0.32
298.15 K, x1 = 0.2498 | 870.03 ± 0.66 | 26.98 ± 0.32
298.15 K, x1 = 0.2989 | 869.71 ± 0.68 | 26.61 ± 0.32
298.15 K, x1 = 0.3495 | 869.39 ± 0.71 | 26.25 ± 0.32
298.15 K, x1 = 0.3997 | 869.08 ± 0.74 | 25.92 ± 0.32
298.15 K, x1 = 0.4505 | 868.77 ± 0.77 | 25.59 ± 0.32
298.15 K, x1 = 0.4991 | 868.48 ± 0.81 | 25.3 ± 0.33
298.15 K, x1 = 0.5504 | 868.19 ± 0.84 | 25.03 ± 0.33
298.15 K, x1 = 0.6 | 867.92 ± 0.88 | 24.78 ± 0.33
298.15 K, x1 = 0.6496 | 867.65 ± 0.91 | 24.54 ± 0.33
298.15 K, x1 = 0.7006 | 867.37 ± 0.95 | 24.32 ± 0.33
298.15 K, x1 = 0.75 | 867.13 ± 0.99 | 24.13 ± 0.33
298.15 K, x1 = 0.8002 | 866.88 ± 1 | 23.91 ± 0.34
298.15 K, x1 = 0.8499 | 866.67 ± 1.1 | 23.74 ± 0.34
298.15 K, x1 = 0.9006 | 866.45 ± 1.1 | 23.55 ± 0.34
298.15 K, x1 = 0.9477 | 866.27 ± 1.2 | 23.36 ± 0.34
298.15 K, x1 = 1 | 866.06 ± 1.2 | 23.15 ± 0.35
308.15 K, x1 = 0.0495 | 863.22 ± 0.58 | 27.75 ± 0.32
308.15 K, x1 = 0.0992 | 862.76 ± 0.6 | 27.26 ± 0.31
308.15 K, x1 = 0.149 | 862.3 ± 0.62 | 26.78 ± 0.31
308.15 K, x1 = 0.1998 | 861.84 ± 0.64 | 26.31 ± 0.31
308.15 K, x1 = 0.25 | 861.39 ± 0.67 | 25.89 ± 0.31
308.15 K, x1 = 0.2995 | 860.95 ± 0.7 | 25.52 ± 0.31
308.15 K, x1 = 0.3497 | 860.51 ± 0.72 | 25.17 ± 0.31
308.15 K, x1 = 0.4004 | 860.07 ± 0.75 | 24.83 ± 0.31
308.15 K, x1 = 0.4501 | 859.64 ± 0.78 | 24.52 ± 0.31
308.15 K, x1 = 0.4995 | 859.23 ± 0.82 | 24.21 ± 0.31
308.15 K, x1 = 0.5505 | 858.81 ± 0.85 | 23.94 ± 0.32
308.15 K, x1 = 0.5994 | 858.42 ± 0.88 | 23.69 ± 0.32
308.15 K, x1 = 0.65 | 858.02 ± 0.92 | 23.48 ± 0.32
308.15 K, x1 = 0.6987 | 857.63 ± 0.96 | 23.25 ± 0.32
308.15 K, x1 = 0.7505 | 857.25 ± 1 | 23.04 ± 0.32
308.15 K, x1 = 0.7986 | 856.89 ± 1 | 22.82 ± 0.32
308.15 K, x1 = 0.8497 | 856.54 ± 1.1 | 22.67 ± 0.33
308.15 K, x1 = 0.8999 | 856.19 ± 1.1 | 22.48 ± 0.33
308.15 K, x1 = 0.9491 | 855.87 ± 1.2 | 22.32 ± 0.33
308.15 K, x1 = 1 | 855.51 ± 1.2 | 22.16 ± 0.33
313.15 K, x1 = 0.0506 | 859.06 ± 0.58 | 27.18 ± 0.31
313.15 K, x1 = 0.1002 | 858.55 ± 0.6 | 26.67 ± 0.31
313.15 K, x1 = 0.1499 | 858.03 ± 0.63 | 26.15 ± 0.31
313.15 K, x1 = 0.2001 | 857.52 ± 0.65 | 25.7 ± 0.31
313.15 K, x1 = 0.2505 | 857 ± 0.68 | 25.28 ± 0.31
313.15 K, x1 = 0.3001 | 856.51 ± 0.7 | 24.91 ± 0.31
313.15 K, x1 = 0.3502 | 856.01 ± 0.73 | 24.59 ± 0.31
313.15 K, x1 = 0.3995 | 855.53 ± 0.76 | 24.26 ± 0.31
313.15 K, x1 = 0.4501 | 855.03 ± 0.79 | 23.95 ± 0.31
313.15 K, x1 = 0.5001 | 854.56 ± 0.82 | 23.62 ± 0.31
313.15 K, x1 = 0.5503 | 854.08 ± 0.86 | 23.36 ± 0.31
313.15 K, x1 = 0.6007 | 853.61 ± 0.89 | 23.08 ± 0.31
313.15 K, x1 = 0.6492 | 853.16 ± 0.93 | 22.9 ± 0.31
313.15 K, x1 = 0.6997 | 852.71 ± 0.96 | 22.65 ± 0.31
313.15 K, x1 = 0.75 | 852.27 ± 1 | 22.46 ± 0.32
313.15 K, x1 = 0.801 | 851.82 ± 1 | 22.2 ± 0.32
313.15 K, x1 = 0.848 | 851.43 ± 1.1 | 22.09 ± 0.32
313.15 K, x1 = 0.8998 | 851.01 ± 1.1 | 21.89 ± 0.32
313.15 K, x1 = 0.9498 | 850.6 ± 1.2 | 21.77 ± 0.32
313.15 K, x1 = 1 | 850.16 ± 1.2 | 21.64 ± 0.33
